Data taken from ChEMBL document CHEMBL4376833, “Influence of Non-natural Cationic Amino Acids on the Biological Activity Profile of Innate Defense Regulator Peptides” (J Med Chem, 2019).
Values after ≈ are worked out from the molar mass of the structure shown. Active and inactive are the calls of the source. Unless noted, no cut-off for these calls is given here. Non-standard residues stand in square brackets, D forms with d. Residues, ends and D or L forms follow the SMILES beside them. Orn = NCCC[C@H](N)C(=O)O; Dap = NC[C@H](N)C(=O)O

Tests used:
PBMC [1] = test: Proinflammatory activity in human PBMC assessed as increase in LPS-stimulated IL1 production at 40 uM incubated for overnight in presence of Pseudomonas aeruginosa PAO1 LPS by ELISA relative to control; type: cell-based
Staphylococcus aureus [2] = test: Antibiofilm activity against methicillin-resistant Staphylococcus aureus assessed as inhibition of biofilm formation incubated for overnight by crystal violet staining based microtiter plate assay; type: functional, organism-based
Staphylococcus aureus [3] = test: Antibacterial activity against methicillin-resistant Staphylococcus aureus assessed as alteration in bacterial growth in TSB medium supplemented with 1% glucose up to 64 uM measured after overnight incubation by CLSI protocol based broth dilution method; type: functional, organism-based
Staphylococcus aureus [4] = test: Antibacterial activity against methicillin-resistant Staphylococcus aureus assessed as bacterial growth inhibition in MHB medium measured after overnight incubation by CLSI protocol based broth dilution method; type: functional
PBMC [5] = test: Immunostimulatory activity in human PBMC assessed as induction of chemokine MCP1 production at 10 to 40 uM incubated for overnight by ELISA; type: functional, cell-based
PBMC [6] = test: Cytotoxicity against human PBMC assessed as decrease in cell viability at 10 to 40 uM incubated for overnight by LDH assay; type: cell-based
[7] = Stability of compound assessed as bovine trypsin-mediated compound hydrolysis at 10 uM incubated for 30 mins by RP-HPLC analysis; type: ADME, Bos taurus; conditions: cattle, read-out: Drug degradation
[8] = Binding affinity to SDS micelle assessed as blue shift with maximum emission at wavelength between 339 to 344 nm at 1 uM in TRIS buffer at pH 7.4 measured after 24 hrs by Trp emission fluorescence spectroscopy
[9] = Binding affinity to DPC micelle assessed as increase in fluorescence emission intensity at maximum wavelength at 1 uM in TRIS buffer at pH 7.4 measured after 24 hrs by Trp emission fluorescence spectroscopy relative to TRIS buffer
[10] = Binding affinity to SDS micelle assessed as increase in fluorescence emission intensity at maximum wavelength at 1 uM in TRIS buffer at pH 7.4 measured after 24 hrs by Trp emission fluorescence spectroscopy relative to TRIS buffer
Staphylococcus aureus [11] = test: Antibacterial activity against methicillin-resistant Staphylococcus aureus assessed as bacterial growth inhibition in TSB medium supplemented with 1% glucose measured after overnight incubation by CLSI protocol based broth dilution method; type: functional, organism-based
Staphylococcus aureus [12] = test: Antibacterial activity against methicillin-resistant Staphylococcus aureus assessed as alteration in bacterial growth in TSB medium supplemented with 1% glucose at concentration of MIC in MHB medium measured after overnight incubation by CLSI protocol based broth dilution method; type: functional, organism-based
[13] = Binding affinity to DPC micelle assessed as blue shift with maximum fluorescence emission at 1 uM in TRIS buffer at pH 7.4 measured after 24 hrs by Trp emission fluorescence spectroscopy
PBMC [14] = test: Antiinflammatory activity against LPS-stimulated human PBMC assessed as suppression of IL1 production at 10 to 40 uM incubated for overnight in presence of Pseudomonas aeruginosa PAO1 LPS by ELISA; type: functional, cell-based
PBMC [15] = test: Proinflammatory activity in human PBMC assessed as increase in LPS-stimulated IL1 production at 40 uM incubated for overnight in presence nof Pseudomonas aeruginosa PAO1 LPS by ELISA; type: cell-based
[16] = Binding affinity to DPC micelle assessed as blue shift with maximum emission at wavelength of 352 nm at 1 uM in TRIS buffer at pH 7.4 measured after 24 hrs by Trp emission fluorescence spectroscopy
PBMC [17] = test: Cytotoxicity against human PBMC assessed as decrease in cell viability at 40 uM incubated for overnight by LDH assay relative to control; type: cell-based
Staphylococcus aureus [18] = test: Antibiofilm activity against methicillin-resistant Staphylococcus aureus assessed as inhibition of biofilm formation by measuring residual biofilm growth incubated for overnight at 10-fold dilution by crystal violet staining based microtiter plate assay relative to control; type: functional
Staphylococcus aureus [19] = test: Antibacterial activity against methicillin-resistant Staphylococcus aureus assessed as alteration in bacterial growth incubated for overnight by microtiter plate based spectrophotometric analysis; type: functional, organism-based
[20] = Binding affinity to DPC micelle assessed as blue shift with maximum emission at wavelength of 340 nm at 1 uM in TRIS buffer at pH 7.4 measured after 24 hrs by Trp emission fluorescence spectroscopy

Compound	IC50 (Staphylococcus aureus [2])	Activity (Staphylococcus aureus [3])	MIC (Staphylococcus aureus [4])	Activity (PBMC [5])	Activity (PBMC [6])	metabolised at 0.5 h, 10 µM [7]	Activity [8]	fold change (FC) [9]	inhibition (Staphylococcus aureus [11])	Activity (Staphylococcus aureus [12])	Activity [13]	inhibition (Staphylococcus aureus [2])	residual biofilm growth (% of control) (Staphylococcus aureus [18])	Activity (Staphylococcus aureus [19])	other results
CC[C@H](C)[C@H](NC(=O)[C@H](CN)NC(=O)[C@@H](NC(=O)[C@H](C)NC(=O)[C@@H](NC(=O)[C@@H](NC(=O)[C@H](CC(C)C)NC(=O)[C@H](CN)NC(=O)[C@@H](N)C(C)C)[C@@H](C)CC)C(C)C)C(C)C)C(=O)N[C@@H](Cc1c[nH]c2ccccc12)C(=O)N[C@@H](CN)C(=O)N[C@@H](CN)C(N)=O (H-V[Dap]LIVAV[Dap]IW[Dap][Dap]-NH2)	12.8 µM	Active	4 µM (≈ 5.02 µg/mL)	Active	Non-Toxic	30%	Active	2 to 6	inactive	Active	Active				fold change (FC) (PBMC [1]): 4 to 8; Activity [10]: inactive
CC[C@H](C)[C@H](NC(=O)[C@H](CN)NC(=O)[C@@H](NC(=O)[C@H](CN)NC(=O)[C@@H](NC(=O)[C@@H](NC(=O)[C@H](CC(C)C)NC(=O)[C@H](CN)NC(=O)[C@@H](N)C(C)C)[C@@H](C)CC)C(C)C)C(C)C)C(=O)N[C@@H](Cc1c[nH]c2ccccc12)C(=O)N[C@@H](CN)C(=O)N[C@@H](CN)C(N)=O (H-V[Dap]LIV[Dap]V[Dap]IW[Dap][Dap]-NH2)	19.6 µM	Active	8 µM (≈ 10.2 µg/mL)	inactive	Non-Toxic	14%	Active	2 to 6	inactive	Active	Active				Activity (PBMC [14]): inactive; Activity [10]: inactive
CC[C@H](C)[C@H](NC(=O)[C@H](CCCN)NC(=O)[C@@H](NC(=O)[C@H](C)NC(=O)[C@@H](NC(=O)[C@@H](NC(=O)[C@H](CC(C)C)NC(=O)[C@H](CCCN)NC(=O)[C@@H](N)C(C)C)[C@@H](C)CC)C(C)C)C(C)C)C(=O)N[C@@H](Cc1c[nH]c2ccccc12)C(=O)N[C@@H](CCCN)C(=O)N[C@@H](CCCN)C(N)=O (H-V[Orn]LIVAV[Orn]IW[Orn][Orn]-NH2)	32 µM	Active	8 µM (≈ 10.9 µg/mL)	Active	Non-Toxic		Active	2 to 6	inactive	Active	Active				Activity (PBMC [15]): Toxic; Activity [10]: inactive
CC[C@H](C)[C@H](NC(=O)[C@H](CCCN)NC(=O)[C@@H](NC(=O)[C@H](CCCN)NC(=O)[C@@H](NC(=O)[C@@H](NC(=O)[C@H](CC(C)C)NC(=O)[C@H](CCCN)NC(=O)[C@@H](N)C(C)C)[C@@H](C)CC)C(C)C)C(C)C)C(=O)N[C@@H](Cc1c[nH]c2ccccc12)C(=O)N[C@@H](CCCN)C(=O)N[C@@H](CCCN)C(N)=O (H-V[Orn]LIV[Orn]V[Orn]IW[Orn][Orn]-NH2)	32 µM	Active	32 µM (≈ 45.1 µg/mL)	Active	Non-Toxic	60%	Active	2 to 6	inactive	Active	Active				Activity (PBMC [15]): Toxic; Activity [16]: Active; Activity [10]: inactive
H-VKLIVAVKIWKK-NH2	12.7 µM	Active	4 µM	Active	Non-Toxic	5%	Active	2 to 6	inactive	Active	Active				Activity (PBMC [15]): Toxic; Activity [10]: inactive
H-VKLIVKVKIWKK-NH2	9.9 µM	Active	4 µM	Active		18%	Active	2 to 6	inactive	Active	Active				fold change (FC) (PBMC [1]): 4 to 8; fold change (FC) [10]: 2.5; Activity (PBMC [17]): 40%
H-VRLIKAVRIWRR-NH2												Dose-dependent effect	102%	Active	
H-VRLIRAVRIWRR-NH2												Dose-dependent effect	102%	Active	
H-VRLIVAKRIWRR-NH2												Dose-dependent effect	101.6%	Active	
H-VRLIVARRIWRR-NH2												Dose-dependent effect	102.6%	Active	
H-VRLIVAVKIWRR-NH2												Dose-dependent effect	17.9%	Active	
H-VRLIVAVRIKRR-NH2												Dose-dependent effect	44.7%	Active	
H-VRLIVAVRIRRR-NH2												Dose-dependent effect	33.2%	Active	
H-VRLIVAVRIWKR-NH2												Dose-dependent effect	11.8%	Active	
H-VRLIVAVRIWRK-NH2												Dose-dependent effect	6%	Active	
H-VRLIVAVRIWRR-NH2	4 to 6 µM	Active	4 µM	inactive		60%	Active		inactive	Active	Active	Dose-dependent effect	8.5%	Active	Activity [20]: Active
H-VRLIVAVRKWRR-NH2												Dose-dependent effect	95.8%	Active	
H-VRLIVAVRRWRR-NH2												Dose-dependent effect	70.2%	Active	
H-VRLIVKVRIWRR-NH2	4 to 6 µM	Active	4 µM	inactive	Non-Toxic	60%	Active	2 to 6	inactive	Active	Active	Dose-dependent effect	6.1%	Active	Activity (PBMC [14]): Active; fold change (FC) [10]: 2.5
H-VRLIVRVRIWRR-NH2	4 to 6 µM	Active	2 µM	Active	Non-Toxic	90%	Active	2 to 6	inactive	Active	Active	Dose-dependent effect	9.2%	Active	Activity (PBMC [14]): Active; Activity [10]: inactive
H-VRLKVAVRIWRR-NH2												Dose-dependent effect	10.7%	Active	
H-VRLRVAVRIWRR-NH2												Dose-dependent effect	15%	Active	
H-VRRIVAVRIWRR-NH2												Dose-dependent effect	83.7%	Active	
